Data from US20250082648A1, “COMPOSITIONS AND METHODS FOR ENHANCING KRAS INHIBITOR OR SHP2 INHIBITOR EFFICACY” (New York University, priority 2023, published 2025).

Experiments:
[1] = system: KCL syngeneic tumor grafts; test: KCL syngeneic tumor grafts in C57BL/6J mice; assay type: in vivo, mouse; details: MRTX-849 100 mg/kg/d, 30 days of treatment; VT104 10 mg/kg/d
Experimental: (§1) For syngeneic tumor experiments, KCL cells (10^6 in 200 ml PBS) were injected subcutaneously into the right flanks of male C57BL/6J mice (Jackson Laboratory). For xenografts, H2030 cells (5×10^6) were injected subcutaneously into the right flanks of Crl:NU-Foxn1nu/nu mice (Charles River, #088) with a 1:1 mixture of cell suspension in Matrigel (Corning, Cat #354234). […] Mice were weighed two times a week prior to dosing and throughout the study. Tumors were measured in 2 dimensions (length and width) twice a week and volumes (mm^3) were calculated as (length×width^2)/2).

[2] = system: H2030 cell-derived xenografts; test: H2030 cell-derived xenografts in nu/nu mice; assay type: in vivo, mouse; details: MRTX-849 100 mg/kg/d, 30 days of treatment; VT104 10 mg/kg/d
Experimental: as §1

NSCLC lines = test: Cell viability and proliferation assays (CCK8, trypan blue counts, Bliss analysis); assay type: cell-based, human; details: for effect on MRTX-849 action: multiple NSCLC lines, including those not STK11 and/or KEAP1 mutant
Experimental: Cell viability and proliferation assays. […] Media (including inhibitors) were replaced every two days. Dose-response curves were generated using the […] Cell Counting Kit-8 (CCK8) assay (Enzo, ALX-850-039-KI02). Three hours after addition of CCK-8 reagent to cells, A450 was recorded using a FlexStation 3 multi-mode microplate reader according to the manufacturer's instructions. IC50s were calculated with GraphPad Prism. For all other proliferation assays, cells were harvested and stained with trypan blue (#T8154, Sigma-Aldrich), and viable (trypan blue-excluding) cells were quantified with a Countless II automated cell counter (Invitrogen).

KCL cells = test: Cell viability and proliferation assays (CCK8, trypan blue counts); details: combined with MRTX-849 at its IC50 dose
YAP1 = YAP1 and DAPI immunofluorescence (YAP1 nuclear localization); assay type: cell-based
Excerpt: […]. […] Datasets (color-coded) used for pathway analysis are indicated at right with the sizes of the circles indicating statistical significance. […]. All immunofluorescence images are representative of three independent experiments. Scale bar=20 μm.
. FIG. 4B is a bubble plot showing pathways (p<0.05) enriched in SL genes (FDR<0.1). Datasets used for analysis are color-coded at right; the sizes of the circles indicate significance level. FIG. 4C is a Circos plot illustrating the overlap of SL genes (FDR<0.1) between lines. […]. FIGS. 10C-10D show quantification of YAP nuclear localization in presence of ROCK-I, in data from FIGS. 3G-3H. *p<0.05, 1-way ANOVA with Tukey's multiple comparisons test.

[3] = preliminary results; cited from earlier work
YAP = test: YAP1 immunofluorescence (nuclear localization); assay type: cell-based, human
Experimental: Immunofluorescence. […]. Cells were then fixed in 4% paraformaldehyde for 10 minutes at room temperature, rinsed three times for 5 min. each in PBS, and permeabilized in 0.1% Triton X-100/5% FBS in PBS for a 1 hr at RT. […] Nuclei were stained with DAPI (BioLegend, Cat #: 422801) for 5 min, and slides were washed two more times in PBS before mounting with Fluorescence Mounting Medium (Dako, Cat #: S3023). Images were acquired with a Zeiss 880 Laser Scanning Confocal Microscope (Axio Observer) equipped with Zen 3.0 software (ZEN blue, Carl Zeiss Inc.) and were processed by Fiji software (NIH).

H2122 cells = details: individual H2122 data (top); MRTX-849 vs vehicle 48 hr
Experimental: Bulk RNA-seq was performed on total RNA from cell lines or isolated tumor cells by the PCC Genome Technology Center Shared Resource (GTC). Libraries were prepared with the Illumina TruSeq Stranded Total RNA Sample Preparation Kit and sequenced on an Illumina NovaSeq 6000 platform utilizing 150-bp paired end reads. Sequencing data were de-multiplexed and transformed into FASTQ format by using Illumina bcl2fastq software. […] Briefly, sequencing results were transformed into FASTQ format by using Illumina bcl2fastq software. Reads were adapter- and quality-trimmed using Trimmomatic before alignment with the human or mouse genome using the splice-aware STAR aligner. Using featureCounts (49), counts for each gene were created based on the number of aligned reads overlapping its exons. These counts were standardized and subsequently evaluated for differential expression via the DESeq2 R package, using negative binomial generalized linear models. Lastly, the Enrichr tool was employed for pathway analysis of the bulk RNA-seq data.

KCL lung tumors = test: KCL GEMM (KRAS G12C; Stk11 fl/fl, Ad-Cre) long-term treatment, MRI monitoring; details: MRTX849 100 mg/kg/d plus SHP099 75 mg/kg/d; resistant tumors soon recurred

## C[C@H](NC(=O)c1ccc2c(-c3ccc(C(F)(F)F)cc3)cccc2c1)c1ccccn1 [VT104]
[1]
  tumor response: minimal
[2]
  tumor response: minimal

## C[C@H](NC(=O)c1ccc2c(-c3ccc(C(F)(F)F)cc3)cccc2c1)c1ccccn1 [VT-104]
NSCLC lines; NSCLC lines, vs single agent or two drug-combinations, all at reduced doses
  effect on efficacy of combination MRTX849/TNO-155: increased the efficacy
NSCLC lines
  effect on MRTX-849 action: synergistically augmented
KCL cells
  IC50 in YAP1 over-expressing cells: higher

## C=CC(=O)N1C[C@@H](n2cc(-c3cccnc3)nn2)[C@H](OCc2ccc(C(F)(F)F)cc2)C1 [MYF-03-69]
NSCLC lines
  effect on MRTX-849 action: synergistically augmented

## C[C@@H](N)[C@H]1CC[C@H](C(=O)Nc2ccncc2)CC1 [Y-27632]
YAP1; NSCLC lines, MRTX-849 at IC50 with or without Y-27632 (10 μM)
  MRTX-849-induced YAP1 nuclear localization: impairs MRTX-849-induced YAP1 nuclear localization

## C[C@H](CO)NC(=O)c1ccc2c(Oc3ccc(C(F)(F)F)cc3)cccc2c1 [VT3989]
[3]
  safety in phase 1 clinical trial: safe with manageable toxicity

## C=C(F)C(=O)N1CCN(c2nc(OC[C@@H]3CCCN3C)nc3c2CCN(c2cccc4cccc(Cl)c24)C3)C[C@@H]1CC#N [MRTX-849, adagrasib]
YAP1; H2030, H2122, H23, MiaPaca2 cells, MRTX-849 at IC50
  nuclear translocation of YAP: induces RHO/ROCK-dependent nuclear translocation of YAP
YAP; H2030 cells
  levels of nuclear YAP: increased
  time at which nuclear YAP increase begins: 4 h
  time at which nuclear YAP peaks: 24 to 48 h
H2122 cells
  PSAP RNA-seq, column median2: 0.7802

## C=C(F)C(=O)N1C[C@@H](Nc2ncccn2)[C@H](OCc2ccc(C(F)(F)F)cc2)C1 [MYF-03-176]
KCL cells
  IC50 in YAP1 over-expressing cells: higher

## C[C@@H](NC(=O)c1ccc2c(-c3ccc(C(F)(F)F)cc3)cccc2c1)c1cccc(N)n1 [VT106]
NSCLC lines; inactive analog control
  effect on drug sensitivity: no effect

## C[C@@H](N)[C@H]1CC[C@H](C(=O)Nc2ccncc2)CC1 [Y27632]
NSCLC lines; two cell lines tested
  effect of addition on MRTX-849 efficacy: increased MRTX-849 efficacy
YAP; MRTX treatment for 24 hr plus ROCK inhibitor
  YAP nuclear translocation induced by MRTX treatment: inhibited
YAP; after 48h of treatment plus ROCK inhibitor
  YAP nuclear translocation induced by MRTX treatment: to an even greater extent

## CC1(N)CCN(c2cnc(-c3cccc(Cl)c3Cl)c(N)n2)CC1 [SHP099]
KCL lung tumors
  response of tumors recurred after prolonged MRTX-849 treatment: partial responses
